This note sets out measurements from publication PMC9254149 (RSC Advances, 2022).

Each structure is given as a SMILES string. Some results are limits rather than exact numbers.

Format in all cases: cell-based, human
Series [1] can be described thus: Cell viability by CCK-8 method. To be noted: human, HepG2 cells.
The subject of the next series is HepG2 cells. The experiment in a line: Cell viability by CCK-8 method. The note with it: Homo sapiens, HepG2, 24 h, read-out: IC50 (cell viability).
For the next series, the system named is IR-HepG2 cells. Nature of the series: Glucose consumption in IR-HepG2 cells. The note with it: 24 h.

In series [1], `CC(C)=CCCC(C)(O)C(O)CCC(C)CCO` (stereo not drawn) [Compound 3, 2,6,10-trimethyl-6,7,12-trihydroxy-dodec-2-ene] showed a viability at 24 h, 10 µM of 94.8 ± 1.94%; a viability at 24 h, 20 µM of 83.5 ± 3.68%; a viability at 24 h, 30 µM of 60.3 ± 3.33%; a viability at 24 h, 40 µM of 36.3 ± 1.62%. In series [1], this molecule came in with a viability at 24 h, 50 µM of 33.4 ± 1.9%. Moreover, the IC50 with HepG2 cells worked out at 34 µM. Further, in the series on IR-HepG2 cells (2.5 μM), the Glucose consumption came to 2.06 ± 1.27 mM. In addition, in the series with IR-HepG2 cells (5.0 μM), the Glucose consumption stood at 2.43 ± 0.67 mM. Moreover, in the series with IR-HepG2 cells (10.0 μM), the Glucose consumption worked out at 2.66 ± 0.56 mM. The molecule also registered a Glucose consumption in the series with IR-HepG2 cells (12.5 μM) of 2.86 ± 0.71 mM. This molecule also returned a Glucose consumption in the series on IR-HepG2 cells (15 μM) of 2.44 ± 0.60 mM.
In series [1], `C[C@@H]1O[C@@H](O[C@H]2[C@H](O[C@H]3CC[C@@]4(C)[C@@H](CC[C@]5(C)[C@@H]4CC=C4[C@@H]6CC(C)(C)CC[C@]6(C(=O)O)CC[C@]45C)[C@]3(C)CO)OC[C@H](O)[C@@H]2O)[C@H](O)[C@H](O)[C@H]1O` [Compound 5, α-hederin] displayed a viability at 24 h, 10 µM of 98.57 ± 0.57%; a viability at 24 h, 20 µM of 93.4 ± 1.23%; a viability at 24 h, 30 µM of 89.4 ± 1.16%; a viability at 24 h, 40 µM of 76.1 ± 1.73%. In addition, the viability at 24 h, 50 µM in series [1] came out at 73.3 ± 2.58%. Besides, the IC50 with HepG2 cells was > 50 µM. In the series on IR-HepG2 cells (2.5 μM), this molecule registered a Glucose consumption of 6.31 ± 0.96 mM. The same molecule showed a Glucose consumption with IR-HepG2 cells (10.0 μM) of 7.75 ± 0.84 mM. The Glucose consumption in the series on IR-HepG2 cells (12.5 μM) was found to be 8.97 ± 0.37 mM. This molecule also gave a Glucose consumption in the series on IR-HepG2 cells (15 μM) of 9.99 ± 0.95 mM.
